Measurements as given in patent US10160747B2, “Compounds and methods for kinase modulation, and indications therefor” (Plexxikon Inc., priority 2016, dated 2018).

target: T1, BA/F3-FLT3-ITD + D835Y (Homo sapiens, UniProt P36888, D835Y, cells depend on it, form not given); assay: Engineered BA/F3 cell growth assay, FLT3 ITD/D835Y; format: cell-based, murine; conditions: 3 d growth
T1 sequence (P36888 with tags, fused parts or gaps INS600HVDFREYEYD/D835Y): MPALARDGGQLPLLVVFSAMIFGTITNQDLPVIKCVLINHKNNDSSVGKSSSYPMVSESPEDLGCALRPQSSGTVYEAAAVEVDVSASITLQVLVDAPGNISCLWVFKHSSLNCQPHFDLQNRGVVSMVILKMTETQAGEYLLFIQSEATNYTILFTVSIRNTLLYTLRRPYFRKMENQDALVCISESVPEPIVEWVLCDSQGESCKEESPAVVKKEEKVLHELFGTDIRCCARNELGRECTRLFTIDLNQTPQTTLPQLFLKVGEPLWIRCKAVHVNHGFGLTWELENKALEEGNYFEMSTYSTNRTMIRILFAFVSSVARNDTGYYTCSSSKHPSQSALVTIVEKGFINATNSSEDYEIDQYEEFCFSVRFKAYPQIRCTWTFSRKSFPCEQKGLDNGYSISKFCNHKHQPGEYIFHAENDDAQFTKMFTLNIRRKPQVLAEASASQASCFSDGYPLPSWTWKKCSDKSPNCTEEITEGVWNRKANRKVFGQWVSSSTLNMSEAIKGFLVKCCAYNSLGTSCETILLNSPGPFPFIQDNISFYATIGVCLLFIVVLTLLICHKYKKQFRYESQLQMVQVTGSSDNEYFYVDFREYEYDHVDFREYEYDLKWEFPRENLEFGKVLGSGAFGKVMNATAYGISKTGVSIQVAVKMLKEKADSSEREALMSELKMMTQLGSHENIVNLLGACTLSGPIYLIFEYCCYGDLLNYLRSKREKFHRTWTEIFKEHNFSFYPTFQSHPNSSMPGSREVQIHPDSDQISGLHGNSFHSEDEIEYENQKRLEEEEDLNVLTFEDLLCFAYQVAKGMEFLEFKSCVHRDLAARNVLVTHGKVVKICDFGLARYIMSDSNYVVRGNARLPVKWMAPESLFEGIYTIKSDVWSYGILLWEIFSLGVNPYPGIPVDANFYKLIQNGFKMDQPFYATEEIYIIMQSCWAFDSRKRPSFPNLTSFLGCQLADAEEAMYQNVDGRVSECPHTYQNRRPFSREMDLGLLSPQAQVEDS
Summary of the method: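 IC50 derived from CellTiter-Glo ATP luminescence after 3 days at 37 °C, 5% CO2, over eight 1:3 dilutions from 1 μM (0.2% DMSO final). Cells: IL-3-independent murine Ba/F3 expressing full-length FLT3 ITD/D835Y, 1×10^4 per well.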

Compound	GI50
Cn1cc(Nc2ncc(-c3ccc(CC(=O)Nc4ccc(C(C)(C)C#N)nc4)c(F)c3)cn2)cn1 [Compound P-0108, N-[6-(1-cyano-1-methyl-ethyl)-3-pyridyl]-2-[2-fluoro-4-[2-[(1-methylpyrazol-4-yl)amino]pyrimidin-5-yl]phenyl]acetamide]	0.0001 to 10 µM
Cn1cc(Nc2ncc(-c3ccc(CC(=O)Nc4cnc(Cl)c(C(F)(F)F)c4)c(F)c3)cn2)cn1 [Compound P-0092, N-[6-chloro-5-(trifluoromethyl)-3-pyridyl]-2-[2-fluoro-4-[2-[(1-methylpyrazol-4-yl)amino]pyrimidin-5-yl]phenyl]acetamide]	0.0001 to 10 µM
Cn1cc(Nc2ncc(-c3ccc(CC(=O)Nc4ccc(C(F)(F)F)nc4)c(F)c3)cn2)cn1 [Compound P-0110, 2-[2-fluoro-4-[2-[(1-methylpyrazol-4-yl)amino]pyrimidin-5-yl]phenyl]-N-[6-(trifluoromethyl)-3-pyridyl]acetamide]	0.0001 to 10 µM
O=C(Cc1ccc(-c2cnc3[nH]c(-c4ccccc4)cc3c2)cc1F)Nc1ccnc(C(F)(F)F)c1 [Compound P-0004, 2-[2-fluoro-4-(2-phenyl-1H-pyrrolo[2,3-b]pyridin-5-yl)phenyl]-N-[2-(trifluoromethyl)-4-pyridyl]acetamide]	0.0001 to 10 µM
Cn1cc(Nc2ncc(-c3ccc(CC(=O)Nc4ccc(C(F)(F)F)cn4)c(F)c3)cn2)cn1 [Compound P-0106, 2-[2-fluoro-4-[2-[(1-methylpyrazol-4-yl)amino]pyrimidin-5-yl]phenyl]-N-[5-(trifluoromethyl)-2-pyridyl]acetamide]	0.0001 to 10 µM
COc1cncc(NC(=O)Cc2ccc(-c3cnc(Nc4cnn(C)c4)nc3)cc2)c1 [Compound P-0133, N-(5-methoxy-3-pyridyl)-2-[4-[2-[(1-methylpyrazol-4-yl)amino]pyrimidin-5-yl]phenyl]acetamide]	0.0001 to 10 µM
O=C(Cc1ccc(-c2cnc3[nH]c(-c4ccccc4)cc3c2)c(F)c1)Nc1cccc(C(F)(F)F)c1 [Compound P-0003, 2-[3-fluoro-4-(2-phenyl-1H-pyrrolo[2,3-b]pyridin-5-yl)phenyl]-N-[3-(trifluoromethyl)phenyl]acetamide]	0.0001 to 10 µM
Cn1cnc(Nc2ncc(-c3ccc(CC(=O)Nc4cncc(C(C)(F)F)c4)c(F)c3)cn2)c1 [Compound P-0103, N-[5-(1,1-difluoroethyl)-3-pyridyl]-2-[2-fluoro-4-[2-[(1-methylimidazol-4-yl)amino]pyrimidin-5-yl]phenyl]acetamide]	0.0001 to 10 µM
Cn1cc(Nc2ncc(-c3ccc(CC(=O)NCc4cccnc4)cc3)cn2)cn1 [Compound P-0132, 2-[4-[2-[(1-methylpyrazol-4-yl)amino]pyrimidin-5-yl]phenyl]-N-(3-pyridylmethyl)acetamide]	0.0001 to 10 µM
Cn1cc(Nc2ncc(-c3ccc(CC(=O)Nc4cc(Cl)c(C5CC5)cn4)c(F)c3)cn2)cn1 [Compound P-0107, N-(4-chloro-5-cyclopropyl-2-pyridyl)-2-[2-fluoro-4-[2-[(1-methylpyrazol-4-yl)amino]pyrimidin-5-yl]phenyl]acetamide]	0.0001 to 10 µM
Cn1cnc(Nc2ncc(-c3ccc(CC(=O)Nc4cc(C(F)(F)F)ccn4)c(F)c3)cn2)c1 [Compound P-0096, 2-[2-fluoro-4-[2-[(1-methylimidazol-4-yl)amino]pyrimidin-5-yl]phenyl]-N-[4-(trifluoromethyl)-2-pyridyl]acetamide]	0.0001 to 10 µM
Cc1cc(-c2cnc3[nH]c(-c4ccccc4)cc3c2)ccc1CC(=O)Nc1cccc(C(F)(F)F)c1 [Compound P-0001, 2-[2-methyl-4-(2-phenyl-1H-pyrrolo[2,3-b]pyridin-5-yl)phenyl]-N-[3-(trifluoromethyl)phenyl]acetamide]	0.0001 to 10 µM

Now from value to compound:

GI50	Compound
0.0001 to 10 µM	Cn1cc(Nc2ncc(-c3ccc(CC(=O)Nc4ccc(C(C)(C)C#N)nc4)cc3)cn2)cn1 [Compound P-0146, N-[6-(1-cyano-1-methyl-ethyl)-3-pyridyl]-2-[4-[2-[(1-methylpyrazol-4-yl)amino]pyrimidin-5-yl]phenyl]acetamide]
0.0001 to 10 µM	N#Cc1cc(-c2cc3cc(-c4ccc(CC(=O)Nc5ccnc(C(F)(F)F)c5)nc4)cnc3[nH]2)ccn1 [Compound P-0182, 2-[5-[2-(2-cyano-4-pyridyl)-1H-pyrrolo[2,3-b]pyridin-5-yl]-2-pyridyl]-N-[2-(trifluoromethyl)-4-pyridyl]acetamide]
0.0001 to 10 µM	Cn1cnc(Nc2ncc(-c3ccc(CC(=O)Nc4cc(C(C)(F)F)ccn4)cc3)cn2)c1 [Compound P-0169, N-[4-(1,1-difluoroethyl)-2-pyridyl]-2-[4-[2-[(1-methylimidazol-4-yl)amino]pyrimidin-5-yl]phenyl]acetamide]
0.0001 to 10 µM	Cn1cc(Nc2ncc(-c3ccc(CC(=O)Nc4cc(C(F)(F)F)ccn4)cc3)cn2)cn1 [Compound P-0139, 2-[4-[2-[(1-methylpyrazol-4-yl)amino]pyrimidin-5-yl]phenyl]-N-[4-(trifluoromethyl)-2-pyridyl]acetamide]
0.0001 to 10 µM	Cn1cc(Nc2ncc(-c3ccc(CC(=O)Nc4ccnc(C(F)(F)F)n4)cc3)cn2)cn1 [Compound P-0137, 2-[4-[2-[(1-methylpyrazol-4-yl)amino]pyrimidin-5-yl]phenyl]-N-[2-(trifluoromethyl)pyrimidin-4-yl]acetamide]
0.0001 to 10 µM	Cn1cc(Nc2ncc(-c3ccc(CC(=O)Nc4ccnc(C(F)(F)F)c4)cc3)cn2)cn1 [Compound P-0134, 2-[4-[2-[(1-methylpyrazol-4-yl)amino]pyrimidin-5-yl]phenyl]-N-[2-(trifluoromethyl)-4-pyridyl]acetamide]
0.0001 to 10 µM	O=C(Cc1ccc(-c2cnc3[nH]c(-c4ccc(N5CCOCC5)nc4)cc3c2)c(F)c1)Nc1cc(C(F)(F)F)ccn1 [Compound P-0192, 2-[3-fluoro-4-[2-(6-morpholino-3-pyridyl)-1H-pyrrolo[2,3-b]pyridin-5-yl]phenyl]-N-[4-(trifluoromethyl)-2-pyridyl]acetamide]
0.0001 to 10 µM	Cc1n[nH]c2ncc(-c3cc(F)c(CC(=O)Nc4cncc(C(F)(F)F)c4)cc3F)cc12 [Compound P-0173, 2-[2,5-difluoro-4-(3-methyl-1H-pyrazolo[3,4-b]pyridin-5-yl)phenyl]-N-[5-(trifluoromethyl)-3-pyridyl]acetamide]
0.0001 to 10 µM	Cc1ncc(NC(=O)Cc2ccc(-c3cnc(Nc4cn(C)cn4)nc3)cc2)cc1C(F)(F)F [Compound P-0150, 2-[4-[2-[(1-methylimidazol-4-yl)amino]pyrimidin-5-yl]phenyl]-N-[6-methyl-5-(trifluoromethyl)-3-pyridyl]acetamide]
0.0001 to 10 µM	N#Cc1cc(-c2cc3cc(-c4ccc(CC(=O)Nc5cc(C(F)(F)F)ccn5)cc4F)cnc3[nH]2)ccn1 [Compound P-0194, 2-[4-[2-(2-cyano-4-pyridyl)-1H-pyrrolo[2,3-b]pyridin-5-yl]-3-fluoro-phenyl]-N-[4-(trifluoromethyl)-2-pyridyl]acetamide]
0.0001 to 10 µM	Cn1cc(Nc2ncc(-c3ccc(CC(=O)Nc4ccc(C(C)(C)C)nc4)cc3)cn2)cn1 [Compound P-0143, N-(6-tert-butyl-3-pyridyl)-2-[4-[2-[(1-methylpyrazol-4-yl)amino]pyrimidin-5-yl]phenyl]acetamide]
0.0001 to 10 µM	Cn1cc(Nc2ncc(-c3ccc(CC(=O)Nc4cncc(C(C)(F)F)c4)cc3)cn2)cn1 [Compound P-0144, N-[5-(1,1-difluoroethyl)-3-pyridyl]-2-[4-[2-[(1-methylpyrazol-4-yl)amino]pyrimidin-5-yl]phenyl]acetamide]
0.0001 to 10 µM	N#Cc1ccc(-c2cc3cc(-c4ccc(CC(=O)Nc5cncc(C(F)(F)F)c5)cc4F)cnc3[nH]2)cn1 [Compound P-0195, 2-[4-[2-(6-cyano-3-pyridyl)-1H-pyrrolo[2,3-b]pyridin-5-yl]-3-fluoro-phenyl]-N-[5-(trifluoromethyl)-3-pyridyl]acetamide]
0.0001 to 10 µM	COc1ccc(-c2cc3cc(-c4ccc(CC(=O)Nc5cc(C(F)(F)F)ccn5)cc4F)cnc3[nH]2)cn1 [Compound P-0191, 2-[3-fluoro-4-[2-(6-methoxy-3-pyridyl)-1H-pyrrolo[2,3-b]pyridin-5-yl]phenyl]-N-[4-(trifluoromethyl)-2-pyridyl]acetamide]
0.0001 to 10 µM	Cn1cc(Nc2ncc(-c3ccc(CC(=O)Nc4ccc(S(C)(=O)=O)cc4)cc3)cn2)cn1 [Compound P-0156, 2-[4-[2-[(1-methylpyrazol-4-yl)amino]pyrimidin-5-yl]phenyl]-N-(4-methylsulfonylphenyl)acetamide]
